The record followed here is ChEMBL document CHEMBL4828726, “Modification of 5-methylphenanthridium from benzothiazoles to indoles as potent FtsZ inhibitors: Broadening the antibacterial spectrum toward vancomycin-resistant enterococci” (Eur J Med Chem, 2021).

In general, MIC refers to the smallest concentration in the dilution series that meets the test's criterion for growth inhibition. Broadly, the MBC is the smallest concentration meeting the test's criterion for killing.

In data set [1] the test system is Staphylococcus aureus. The data set can be described thus: Antibacterial activity against Staphylococcus aureus ATCC 25923 assessed as fold increase in MIC value measured after 1 passage by Multi passage resistance assay. The class given is functional.
The subject of data set [2] is Staphylococcus aureus. The data set can be described thus: Antibacterial activity against Staphylococcus aureus ATCC 25923 assessed as fold increase in MIC value measured after 15 passages by Multi passage resistance assay. It is filed as functional.
For data set [3], the system named is Enterococcus faecalis. The data set can be described thus: Antibacterial activity against Vancomycin-resistant Enterococcus faecalis ATCC 51299 assessed as inhibition of bacterial growth measured after 20 hrs by two-fold microdilution assay. The class given is functional. (Dilution methods test growth across graded concentrations, often in twofold steps.)
Data set [4] has as its system Bacillus pumilus. The data set is described as follows: Antibacterial activity against penicillin-susceptible Bacillus pumilus CMCC63202 assessed as inhibition of bacterial growth measured after 20 hrs by two-fold microdilution assay. The class given is functional.
In data set [5] the test system is Staphylococcus epidermidis. The data set is described as follows: Antibacterial activity against penicillin-resistant Staphylococcus epidermidis assessed as inhibition of bacterial growth measured after 20 hrs by two-fold microdilution assay. The class given is functional.
Data set [6] has as its system Staphylococcus aureus. The data set is described as follows: Ratio of MBC to MIC against methicilline-resistant Staphylococcus aureus ATCC43300. The class given is functional.
Data set [7] has as its system Staphylococcus aureus. The data set can be described thus: Ratio of MBC to MIC against erythromycin-susceptible Staphylococcus aureus ATCC 25923. It is filed as functional.
Data set [8] relates to Enterococcus faecalis. The data set is described as follows: Antibacterial activity against Vancomycin-susceptible Enterococcus faecalis ATCC 29212 assessed as inhibition of bacterial growth measured after 20 hrs by two-fold microdilution assay. The class given is functional.
Data set [9] has as its system Staphylococcus aureus. The data set is described as follows: Antibacterial activity against Staphylococcus aureus ATCC 25923 assessed as decrease of bacterial growth measured up to 24 hrs by Time kill assay. It is filed as functional, organism-based. The settings on record: dose 4-32 µg/ml, time hrs <=24.
Data set [10] has as its system Staphylococcus aureus. The data set is described as follows: Antibacterial activity against Staphylococcus aureus ATCC 25923 assessed as fold increase in MIC value measured after 10 passages by Multi passage resistance assay. It is filed as functional, organism-based.
The test system of data set [11] is Staphylococcus aureus. The data set is described as follows: Bactericidal activity against penicillin-resistant Staphylococcus aureus ATCC 31007 assessed as inhibition of bacterial growth measured after 20 hrs by two-fold microdilution assay. The class given is functional.
Data set [12] deals with Staphylococcus aureus. The data set can be described thus: Bactericidal activity against erythromycin-susceptible Staphylococcus aureus ATCC 25923 assessed as inhibition of bacterial growth measured after 20 hrs by two-fold microdilution assay. It is filed as functional.
Data set [13] deals with Streptococcus pyogenes. The data set is described as follows: Antibacterial activity against erythromycin-susceptible Streptococcus pyogenes assessed as inhibition of bacterial growth measured after 20 hrs by two-fold microdilution assay. The class given is functional.
Data set [14] concerns Staphylococcus aureus. The data set is described as follows: Bactericidal activity against methicillin-resistant Staphylococcus aureus ATCC43300 assessed as inhibition of bacterial growth measured after 20 hrs by two-fold microdilution assay. The class given is functional.
The test system of another data set is Escherichia coli. The data set can be described thus: Antibacterial activity against penicillin-susceptible Escherichia coli ATCC 25922 assessed as inhibition of bacterial growth measured after 20 hrs by two-fold microdilution assay. It is filed as functional.
Data set [15] concerns Staphylococcus aureus. The data set is described as follows: Antibacterial activity against clinical isolate Staphylococcus aureus C1 assessed as inhibition of bacterial growth measured after 20 hrs by two-fold microdilution assay. The class given is functional.
Data set [16] concerns Staphylococcus aureus. The data set can be described thus: Antibacterial activity against methicillin-resistant Staphylococcus aureus ATCC43300 assessed as inhibition of bacterial growth measured after 20 hrs by two-fold microdilution assay. It is filed as functional.
For data set [17], the system named is Staphylococcus aureus. The data set is described as follows: Antibacterial activity against Staphylococcus aureus ATCC 25923 assessed as fold change in MIC value measured after 14 passages by Multi passage resistance assay. The class given is functional, organism-based.
The subject of data set [18] is Staphylococcus aureus. The data set is described as follows: Antibacterial activity against Staphylococcus aureus ATCC 25923 assessed as reduction of colony forming units at 32 ug/ml measured up to 24 hrs by Time kill assay. It is filed as functional. Also noted: scale not given: the % may be the effect or the level left. Particulars: dose 32 µg/ml; time hrs <=24.

Data set [19] concerns Streptococcus pyogenes. The data set can be described thus: Antibacterial activity against erythromycin-resistant Streptococcus pyogenes assessed as inhibition of bacterial growth measured after 20 hrs by two-fold microdilution assay. It is filed as functional.
The subject of data set [20] is Bacillus subtilis. The data set can be described thus: Antibacterial activity against penicillin-susceptible Bacillus subtilis ATCC 9372 assessed as inhibition of bacterial growth measured after 20 hrs by two-fold microdilution assay. It is filed as functional.
Data set [21] has as its system Bacillus subtilis. The data set can be described thus: Bactericidal activity against penicillin-susceptible Bacillus subtilis ATCC 9372 assessed as inhibition of bacterial growth measured after 20 hrs by two-fold microdilution assay. It is filed as functional.
In data set [22] the test system is Pseudomonas aeruginosa. The data set is described as follows: Anti-biofilm activity against Pseudomonas aeruginosa ATCC 27853 assessed as inhibition of biofilm formation at 4 to 64 ug/ml measured after 20 hrs by crystal violet staining based biofilm formation inhibition assay. The class given is functional, organism-based. Particulars: dose 4-64 µg/ml.
Data set [23] relates to Bacillus subtilis. The data set is described as follows: Ratio of MBC to MIC against penicillin-susceptible Bacillus subtilis ATCC 9372. It is filed as functional.
Data set [24] deals with Bacillus pumilus. The data set can be described thus: Bactericidal activity against penicillin-susceptible Bacillus pumilus CMCC63202 assessed as inhibition of bacterial growth measured after 20 hrs by two-fold microdilution assay. The class given is functional.
Data set [25] has as its system Staphylococcus aureus. The data set is described as follows: Antibacterial activity against penicillin-resistant Staphylococcus aureus ATCC 31007 assessed as inhibition of bacterial growth measured after 20 hrs by two-fold microdilution assay. The class given is functional.
Data set [26] deals with Enterococcus faecium. The data set is described as follows: Antibacterial activity against Vancomycin-resistant Enterococcus faecium ATCC 51559 assessed as inhibition of bacterial growth measured after 20 hrs by two-fold microdilution assay. The class given is functional.
Data set [27] in a line: Hemolytic activity against mouse RBC at 1 to 16 ug/ml measured after 1 hr by hemolysis assay relative to Triton X-100. The class given is ADME, cell-based, Erythrocyte. Particulars: mouse red blood cells (erythrocytes), at 1 to 16 µg/mL, dose 1-16 µg/ml, read-out: Activity.
For data set [28], the system named is Staphylococcus aureus. The data set can be described thus: Antibacterial activity against erythromycin-susceptible Staphylococcus aureus ATCC 25923 assessed as inhibition of bacterial growth measured after 20 hrs by two-fold microdilution assay. The class given is functional.
The subject of data set [29] is Pseudomonas aeruginosa. The data set can be described thus: Antibacterial activity against penicillin-susceptible Pseudomonas aeruginosa ATCC 27853 assessed as inhibition of bacterial growth measured after 20 hrs by two-fold microdilution assay. The class given is functional.
In data set [30] the test system is Enterococcus faecium. The data set can be described thus: Antibacterial activity against Vancomycin-susceptible Enterococcus faecium ATCC 19434 assessed as inhibition of bacterial growth measured after 20 hrs by two-fold microdilution assay. It is filed as functional.

The source made the active and inactive calls.

For `CO[C@H]1/C=C/O[C@@]2(C)Oc3c(C)c(O)c4c(O)c(c(/C=N/N5CCN(C)CC5)c(O)c4c3C2=O)NC(=O)/C(C)=C\C=C\[C@H](C)[C@H](O)[C@@H](C)[C@@H](O)[C@@H](C)[C@H](OC(C)=O)[C@@H]1C` [RIFAMPIN], the figures for the “fold change (FC)” value in the data set with Staphylococcus aureus [1] and in the data set with Staphylococcus aureus [2] were 8 and greater than 16000, respectively.
On to `CCCCn1ccc2ccc(-c3ccc4c(c3)c3c(C)cccc3c[n+]4C)cc21.[Cl-]`, for which the MIC in the data set with Enterococcus faecalis [3] was 16 µg/mL; in the data set with Bacillus pumilus [4], 8 µg/mL; in [5] it was 16 µg/mL; in the data set with Enterococcus faecalis [8], 8 µg/mL; in the data set on Streptococcus pyogenes [13], 16 µg/mL; in the data set on Escherichia coli, greater than 64 µg/mL. Also, the MIC in the data set with Staphylococcus aureus [15] was 4 µg/mL; in the data set on Staphylococcus aureus [16], 8 µg/mL; in the data set on Streptococcus pyogenes [19], 16 µg/mL; in the data set on Bacillus subtilis [20], 4 µg/mL; in the data set with Staphylococcus aureus [25], 8 µg/mL; in the data set with Enterococcus faecium [26], 8 µg/mL. The values for the MIC in the data set with Staphylococcus aureus [28], with Pseudomonas aeruginosa [29] and in the data set on Enterococcus faecium [30] were 1 µg/mL, greater than 64 µg/mL and 8 µg/mL, respectively. For the same compound, the Ratio in the data set with Staphylococcus aureus [6] is listed as 8; in the data set on Staphylococcus aureus [7] it was 16; with Bacillus subtilis [23], 2. For the same compound, the Activity entry was “Dose-Dependent Effect” with Staphylococcus aureus [9] and greater than 99.9% in the data set on Staphylococcus aureus [18]. In addition, the “fold change (FC)” value with Staphylococcus aureus [1] was 4. The result in the data set on Staphylococcus aureus [10] and with Staphylococcus aureus [17] was Active. Besides, the MBC in the data set with Staphylococcus aureus [11] was greater than 64 µg/mL; in the data set with Staphylococcus aureus [12], 16 µg/mL; with Staphylococcus aureus [14] it was 64 µg/mL; in the data set on Bacillus subtilis [21], 8 µg/mL; in the data set with Bacillus pumilus [24], greater than 64 µg/mL. In the data set on Pseudomonas aeruginosa [22], the outcome was inactive. For the same compound, the hemolysis at 1 h in data set [27] was less than 8%.
